± gives the expanded uncertainty stated by the source.
Experiment: xn = mol fraction of the nth substance listed
Conditions: 101 kPa, Liquid; for viscosity: Capillary tube (Ostwald / Ubbelohde) method; for mass density: Vibrating tube method

CNCCO [2-(methylamino)ethanol] + O
Conditions | mass density [kg/m3] | viscosity [mPa·s]
298.15 K, x1 = 0.0493 | – | 1.801 ± 0.023
298.15 K, x1 = 0.0499 | 996.45 ± 0.25 | –
298.15 K, x1 = 0.0657 | 996.78 ± 0.26 | 2.258 ± 0.029
298.15 K, x1 = 0.1054 | 997.9 ± 0.3 | 3.804 ± 0.049
298.15 K, x1 = 0.1987 | 996.03 ± 0.32 | 8.788 ± 0.11
298.15 K, x1 = 0.2946 | – | 13.51 ± 0.17
298.15 K, x1 = 0.301 | 988.25 ± 0.36 | –
298.15 K, x1 = 0.3834 | 980.24 ± 0.41 | –
298.15 K, x1 = 0.388 | – | 18.21 ± 0.23
298.15 K, x1 = 0.5041 | 968.81 ± 0.47 | 19.98 ± 0.26
298.15 K, x1 = 0.6 | 960.3 ± 0.52 | 19.11 ± 0.26
298.15 K, x1 = 0.6974 | 953.64 ± 0.57 | –
298.15 K, x1 = 0.7003 | – | 17.02 ± 0.23
298.15 K, x1 = 0.8009 | 946.63 ± 0.64 | –
298.15 K, x1 = 0.8019 | – | 14.38 ± 0.2
298.15 K, x1 = 0.898 | – | 12.46 ± 0.18
298.15 K, x1 = 0.9031 | 940.86 ± 0.7 | –
298.15 K, x1 = 1 | 936.18 ± 0.76 | 10.51 ± 0.16
303.15 K, x1 = 0.0493 | – | 1.556 ± 0.02
303.15 K, x1 = 0.0499 | 994.49 ± 0.25 | –
303.15 K, x1 = 0.0657 | 994.58 ± 0.26 | 1.927 ± 0.025
303.15 K, x1 = 0.1054 | 995.16 ± 0.27 | 3.169 ± 0.041
303.15 K, x1 = 0.1987 | 992.48 ± 0.32 | 6.987 ± 0.088
303.15 K, x1 = 0.2946 | – | 10.53 ± 0.13
303.15 K, x1 = 0.301 | 984.47 ± 0.36 | –
303.15 K, x1 = 0.3834 | 976.43 ± 0.4 | –
303.15 K, x1 = 0.388 | – | 14.11 ± 0.18
303.15 K, x1 = 0.5041 | 965 ± 0.47 | 15.44 ± 0.2
303.15 K, x1 = 0.6 | 956.5 ± 0.5 | 15.05 ± 0.2
303.15 K, x1 = 0.6974 | 949.81 ± 0.57 | –
303.15 K, x1 = 0.7003 | – | 13.42 ± 0.19
303.15 K, x1 = 0.8009 | 942.76 ± 0.63 | –
303.15 K, x1 = 0.8019 | – | 11.43 ± 0.16
303.15 K, x1 = 0.898 | – | 10 ± 0.14
303.15 K, x1 = 0.9031 | 936.96 ± 0.7 | –
303.15 K, x1 = 1 | 932.26 ± 0.76 | 8.522 ± 0.13
313.15 K, x1 = 0.0493 | – | 1.195 ± 0.015
313.15 K, x1 = 0.0499 | 990.11 ± 0.25 | –
313.15 K, x1 = 0.0657 | 989.79 ± 0.26 | 1.45 ± 0.019
313.15 K, x1 = 0.1054 | 989.39 ± 0.27 | 2.272 ± 0.029
313.15 K, x1 = 0.1987 | 985.28 ± 0.31 | 4.622 ± 0.059
313.15 K, x1 = 0.2946 | – | 6.748 ± 0.087
313.15 K, x1 = 0.301 | 976.815 ± 0.36 | –
313.15 K, x1 = 0.3834 | 968.73 ± 0.4 | –
313.15 K, x1 = 0.388 | – | 8.852 ± 0.12
313.15 K, x1 = 0.5041 | 957.32 ± 0.46 | 9.719 ± 0.13
313.15 K, x1 = 0.6 | 948.83 ± 0.51 | 9.424 ± 0.13
313.15 K, x1 = 0.6974 | 942.12 ± 0.57 | –
313.15 K, x1 = 0.7003 | – | 8.652 ± 0.12
313.15 K, x1 = 0.8009 | 935.01 ± 0.63 | –
313.15 K, x1 = 0.8019 | – | 7.547 ± 0.11
313.15 K, x1 = 0.898 | – | 6.716 ± 0.098
313.15 K, x1 = 0.9031 | 929.16 ± 0.69 | –
313.15 K, x1 = 1 | 924.42 ± 0.75 | 5.833 ± 0.087
323.15 K, x1 = 0.0493 | – | 0.9978 ± 0.013
323.15 K, x1 = 0.0499 | 985.07 ± 0.25 | –
323.15 K, x1 = 0.0657 | 984.41 ± 0.26 | 1.133 ± 0.015
323.15 K, x1 = 0.1054 | 983.17 ± 0.27 | 1.643 ± 0.021
323.15 K, x1 = 0.1987 | 977.79 ± 0.31 | 3.242 ± 0.042
323.15 K, x1 = 0.2946 | – | 4.581 ± 0.059
323.15 K, x1 = 0.301 | 968.97 ± 0.36 | –
323.15 K, x1 = 0.3834 | 960.83 ± 0.4 | –
323.15 K, x1 = 0.388 | – | 5.886 ± 0.077
323.15 K, x1 = 0.5041 | 949.46 ± 0.46 | 6.458 ± 0.087
323.15 K, x1 = 0.6 | 940.99 ± 0.51 | 6.319 ± 0.086
323.15 K, x1 = 0.6974 | 934.27 ± 0.56 | –
323.15 K, x1 = 0.7003 | – | 5.881 ± 0.082
323.15 K, x1 = 0.8009 | 927.12 ± 0.62 | –
323.15 K, x1 = 0.8019 | – | 5.229 ± 0.075
323.15 K, x1 = 0.898 | – | 4.725 ± 0.069
323.15 K, x1 = 0.9031 | 921.24 ± 0.68 | –
323.15 K, x1 = 1 | 916.48 ± 0.74 | 4.177 ± 0.063
333.15 K, x1 = 0.0493 | – | 0.817 ± 0.01
333.15 K, x1 = 0.0499 | 979.47 ± 0.25 | –
333.15 K, x1 = 0.0657 | 978.52 ± 0.26 | 0.9621 ± 0.013
333.15 K, x1 = 0.1054 | 976.55 ± 0.27 | –
333.15 K, x1 = 0.1987 | 970.11 ± 0.31 | 2.379 ± 0.03
333.15 K, x1 = 0.2946 | – | 3.261 ± 0.042
333.15 K, x1 = 0.301 | 960.9 ± 0.4 | –
333.15 K, x1 = 0.3834 | 952.72 ± 0.4 | –
333.15 K, x1 = 0.388 | – | 4.107 ± 0.054
333.15 K, x1 = 0.5041 | 941.41 ± 0.45 | 4.499 ± 0.061
333.15 K, x1 = 0.6 | 932.98 ± 0.5 | 4.429 ± 0.061
333.15 K, x1 = 0.6974 | 926.28 ± 0.56 | –
333.15 K, x1 = 0.7003 | – | 4.177 ± 0.059
333.15 K, x1 = 0.8009 | 919.16 ± 0.61 | –
333.15 K, x1 = 0.8019 | – | 3.78 ± 0.054
333.15 K, x1 = 0.898 | – | 3.463 ± 0.051
333.15 K, x1 = 0.9031 | 913.22 ± 0.67 | –
333.15 K, x1 = 1 | 908.46 ± 0.73 | 3.108 ± 0.047
343.15 K, x1 = 0.0493 | – | 0.6997 ± 0.009
343.15 K, x1 = 0.0499 | 973.37 ± 0.25 | –
343.15 K, x1 = 0.0657 | 972.17 ± 0.26 | 0.7903 ± 0.01
343.15 K, x1 = 0.1054 | 969.57 ± 0.27 | 1.023 ± 0.013
343.15 K, x1 = 0.1987 | 962.17 ± 0.31 | 1.747 ± 0.023
343.15 K, x1 = 0.2946 | – | 2.416 ± 0.032
343.15 K, x1 = 0.301 | 952.65 ± 0.36 | –
343.15 K, x1 = 0.3834 | 944.43 ± 0.39 | –
343.15 K, x1 = 0.388 | – | 2.986 ± 0.04
343.15 K, x1 = 0.5041 | 933.17 ± 0.45 | 3.255 ± 0.044
343.15 K, x1 = 0.6 | 924.8 ± 0.5 | 3.227 ± 0.045
343.15 K, x1 = 0.6974 | 918.16 ± 0.55 | –
343.15 K, x1 = 0.7003 | – | 3.075 ± 0.043
343.15 K, x1 = 0.8009 | 911 ± 0.61 | –
343.15 K, x1 = 0.8019 | – | 2.827 ± 0.041
343.15 K, x1 = 0.898 | – | 2.618 ± 0.039
343.15 K, x1 = 0.9031 | 905.06 ± 0.67 | –
343.15 K, x1 = 1 | 900.3 ± 0.72 | 2.385 ± 0.036

Reference: the NIST ThermoML archive (doi:10.1021/je060457+)
